Test results published in patent US20260144769A1, “4-PHENYLBUTYRATE RESTORED GABA UPTAKE AND REDUCED SEIZURES IN SLC6A1 VARIANT-MEDIATED DISORDERS” (Vanderbilt University, priority 2022, published 2026).

Test system: GAT-1 (SLC6A1^+/S295L)
Experiment: 3H GABA uptake, cortical astrocytes from SLC6A1^+/S295L knockin mice
Format: cell-based, mouse
Conditions: S295L heterozygous astrocytes; PBA 2 mM, 24 hr; SNAP5114 30 μM
Experimental: Mouse cortical astrocytes or neurons were cultured from postnatal pus at day 0-3 days old for astrocytes and day 0 for neurons from the SLC6A1^+/A288V or SLC6A1^+/S295L mouse line. FIGS. 7A-B show astrocytes under passage 2 were grown in […] dishes and passaged into 35-mm^2 dishes before GABA uptake assay.
FIGS. 7C-D show neurons directly cultured in the 35-mm^2 dishes and GABA uptake was evaluated between day 15-17 days after culture. CI-966 (50 μM) and NNC711 (35 μM) was applied 30 min before preincubation and removed during preincubation. GAT-3 inhibitor SNAP5114 (30 μM) was applied during GABA uptake to make sure only GAT-1 activity was measured. The wildtype astrocytes (FIGS. 7A-B) or cortical neurons (FIGS. 7C-D) of either SLC6A1^+/A288V or SLC6A1^+/S295L were taken as 1. The cultures derived from each mutant mouse was compared to the culture from its own wildtype littermates. […] The wildtype data were pooled from two mouse lines. […] The graph represents the relative GABA uptake level normalized to cells of its own genotype treated with DMSO. CI-966 (50 μM) or NNC-711 (35 μM) was applied 30 min before preincubation and removed during preincubation. Two-way analysis of variance followed by Bonferroni multiple comparison test was used. Values were expressed as mean±S.E.M. In FIG. 7A and FIG. 7C, ***p<0.001 vs. wt; § § § P<0.001 S295L vs. A288V. […]

O=C(O)CCCc1ccccc1 [PBA, 4-phenylbutyric acid]
GABA uptake activity normalized to its own DMSO condition: 1.54±0.13
